Patent US8703786B2, “Etravirine formulations and uses thereof” (priority 2011, dated 2014)
Converted amounts (≈) assume the structure as drawn. Read-outs that look alike come from different tables or passages of the source.

Assays:
[1] = Pharmacokinetic / oral bioavailability study in rats (LC-MS/MS of plasma); format: in vivo; conditions: male, Sprague-Dawley, rat
Protocol: Male Sprague-Dawley rats (250-350 g, Harlan Laboratory Inc., Indianapolis, Ind.) were housed in stainless steel cages and had free access to food and water. They were acclimated to the animal care facility for at least 7 days before the start of the study. To facilitate the withdrawal of timed, multiple blood samples from each animal, the right jugular vein of each animal was cannulated one day prior to drug administration. The cannulas were flushed daily with 0.5 mL sterile heparinized saline (100 units/ml). Under ketamine:acetopromazine:xylazine (50:3.3:3.3 mg/kg ip) anesthesia, silicone elastomer tubing (0.02×0.037 in) was inserted into the jugular vein, secured with a silk suture, and exteriorized in the dorsal infrascapular area. The surgical incision was prophylactically treated with nitrofurazone wound powder and closed with surgical staples.
Animals were allowed free access to food and water at all times. The jugular veins of the rats were cannulated under anesthesia the day before the study. All in vivo studies were initiated between 8:00 am and 9:00 am to eliminate possible circadian variation. The animals were fasted overnight with water allowed ad libitum before oral dosing.
The in vivo study consists of four rat groups. […] The second group is a reference group (n=5) which was given an oral 200 mg/kg administration of a suspension of the commercial Intelence® tablets in 1% Tween 80. […] Oral administration was performed using an animal feeding needle (18 in.×3 in. W; 2¼ mm Ball). Multiple blood samples (0.25 mL) were collected (from the jugular vein cannula) immediately before dosing and at 0.5, 1, 1.5, 2, 3, 4, 5, 6, 8, 10 and 24 hours after dosing. An aliquot of each plasma sample was stored at −70° C. pending LC-MS/MS assay.
Etravirine concentrations in rat plasma was analyzed using a sensitive and accurate liquid chromatographic-tandem mass spectrometry (LC-MS/MS) method developed in the laboratory (10). […] The column effluent was monitored using a 3200 QTRAP® mass spectrum, which is a hybrid triple quadruple linear ion trap equipped with a Turbolonspray ion source. […]

[2] = cited from earlier work
[3] = biological target: p-gp (Homo sapiens, UniProt P08183); conditions: in vitro; read-out: apparent IC50 (inhibitor of p-gp); cited from earlier work
Sequence of p-gp (P08183 whole entry): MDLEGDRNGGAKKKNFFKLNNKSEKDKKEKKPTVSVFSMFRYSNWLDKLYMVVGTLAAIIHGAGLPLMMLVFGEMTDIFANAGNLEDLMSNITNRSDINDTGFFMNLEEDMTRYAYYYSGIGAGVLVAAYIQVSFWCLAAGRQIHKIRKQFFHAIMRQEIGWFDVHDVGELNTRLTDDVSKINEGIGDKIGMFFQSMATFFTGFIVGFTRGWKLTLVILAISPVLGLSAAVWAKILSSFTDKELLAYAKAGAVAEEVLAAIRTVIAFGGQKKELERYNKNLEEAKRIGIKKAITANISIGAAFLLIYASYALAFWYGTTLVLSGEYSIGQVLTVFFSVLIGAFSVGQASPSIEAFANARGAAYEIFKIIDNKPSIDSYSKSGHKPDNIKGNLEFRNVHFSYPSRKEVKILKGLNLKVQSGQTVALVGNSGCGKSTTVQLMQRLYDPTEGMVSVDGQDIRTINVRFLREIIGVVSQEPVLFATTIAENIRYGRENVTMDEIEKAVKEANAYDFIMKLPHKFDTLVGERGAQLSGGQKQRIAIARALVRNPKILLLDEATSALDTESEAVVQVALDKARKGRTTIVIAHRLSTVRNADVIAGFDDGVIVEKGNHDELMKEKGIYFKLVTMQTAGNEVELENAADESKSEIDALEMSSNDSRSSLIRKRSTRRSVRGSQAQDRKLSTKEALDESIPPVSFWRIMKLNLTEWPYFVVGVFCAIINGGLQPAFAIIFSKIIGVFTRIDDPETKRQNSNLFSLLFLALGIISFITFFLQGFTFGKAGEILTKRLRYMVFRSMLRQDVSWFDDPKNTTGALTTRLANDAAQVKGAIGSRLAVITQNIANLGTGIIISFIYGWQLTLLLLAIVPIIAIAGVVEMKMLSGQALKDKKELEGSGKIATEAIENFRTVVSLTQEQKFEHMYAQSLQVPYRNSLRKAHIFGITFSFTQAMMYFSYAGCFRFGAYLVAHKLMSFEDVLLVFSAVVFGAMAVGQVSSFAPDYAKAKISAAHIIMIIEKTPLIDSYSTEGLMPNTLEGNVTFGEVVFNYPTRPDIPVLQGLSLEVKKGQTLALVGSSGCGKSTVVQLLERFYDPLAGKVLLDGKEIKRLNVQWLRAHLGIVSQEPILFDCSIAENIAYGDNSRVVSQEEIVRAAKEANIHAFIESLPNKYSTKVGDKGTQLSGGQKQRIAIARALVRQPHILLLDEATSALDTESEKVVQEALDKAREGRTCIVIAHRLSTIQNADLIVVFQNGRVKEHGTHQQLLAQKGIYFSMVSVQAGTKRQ

[4] = cited from earlier work; for Biopharmaceutics Classification System class: low water solubility and permeability
[5] = Solubility of etravirine in various media by phase solubility analysis (HPLC-UV); format: physicochemical; conditions: for solubility at 72 h: thermodynamic from solid
Protocol: The solubility of etravirine was determined in water, various oils and some organic solvents by phase solubility analysis. Excess drug was added into 20 ml screw-capped scintillation vials containing 5 ml of the tested solvents. The vials were rotated end-over-end at a constant speed on shaker (EBERBACH Corporation, Ann Arbor, Mich.) at room temperature for 3 days (72 hours). The samples were then subjected to centrifugation on a laboratory centrifuge at 13,000 rpm for 15 minutes. Aliquot of the supernatant was diluted with DMSO to the proper concentration before they were analyzed by high-performance liquid chromatography (HPLC) using UV detector.
The HPLC system involved Waters 600 pump, 2487 UV detector and 717 plus auto sampler (Waters Corporation, Milford, Mass.). Separations were done on a 4.6×150 mm, 3.5 μm XTerra MS-C18 column (Waters Corporation, Milford, Mass.). The flow rate was set at 1 ml/min and the wavelength at 304 nm. Chromatographic data acquisition, peak integration and quantification were performed using the Empower software package by Waters Corporation. Mobile phase solution A consisted of 20 mM potassium dihydrogen phosphate aqueous solution and solution B consisted of acetonitrile (40% solution A+60% solution B). pH was adjusted to 3.2 using phosphoric acid. Solvents were regularly prepared prior to each series of analysis.

[6] = system: plasma proteins; conditions: cited from earlier work

Cc1cc(C#N)cc(C)c1Oc1nc(Nc2ccc(C#N)cc2)nc(N)c1Br [Etravirine, 4-[[6-amino-5-bromo-2-[(4-cyanophenyl)amino]-4-pyrimidinyl]oxy]-3,5-dimethyl benzonitrile]
AUC ([1]; IV 2.5 mg/kg): 1.66 ± 0.498 µg·h/mL
Cmax ([1]; IV 2.5 mg/kg (solution in DMSO)): 2.36 ± 1.12 µg/mL
half-life ([1]; IV 2.5 mg/kg, read-out: T1/2 (terminal biological half-life) (converted)): 1.14 ± 0.91 h
time of median peak concentration ([2]; fasted oral administration): approximately 4.0 hours
terminal elimination half-life in plasma ([2]; in vivo): 30 to 40 h
IC50 [3]: 24.2 µM
solubility in PEG 400 reported in the scientific literature ([4]; PEG 400): 74 mg/mL (≈ 170 mM)
ionization constant (pka) [4]: 3.75
octanol:water partition coefficient (logP) [4]: greater than 5
Biopharmaceutics Classification System class [4]: class IV
Biopharmaceutics Classification System class ([4]; listed as etravirine): class IV
solubility at 72 h ([5]; distilled water, water, read-out: intrinsic solubility): 0.0039 mg/mL (≈ 0.00896 mM)
solubility (descriptive) ([5]; in DMSO and 1-methyl-2-pyrrolidinone): freely soluble
solubility (descriptive) ([5]; in PEG 400, Tween 80, Cremophore EL, Tween 20, and Labrasol): soluble
solubility (descriptive) ([5]; in corn oil, soybean oil and olive oil): very slightly soluble
solubility (descriptive) ([5]; in peanut oil, Caproyl 90): slightly soluble
solubility (descriptive) ([5]; in water): practically insoluble
solubility at 72 h ([5]; oil or lipid, Caproyl 90, room temperature, read-out: Drug Solubility): 5.42 ± 0.06 mg/mL (≈ 12.5 mM)
solubility at 72 h ([5]; oil or lipid, Coriander Oil, room temperature, read-out: Drug Solubility): 0.74 mg/mL (≈ 1.7 mM)
solubility at 72 h ([5]; oil or lipid, Corn Oil, room temperature, read-out: Drug Solubility): 0.42 mg/mL (≈ 0.965 mM)
solubility at 72 h ([5]; oil or lipid, Labrafac CC, room temperature, read-out: Drug Solubility): 1.04 ± 0.01 mg/mL (≈ 2.39 mM)
solubility at 72 h ([5]; oil or lipid, Lavender Oil, room temperature, read-out: Drug Solubility): 1.23 mg/mL (≈ 2.83 mM)
solubility at 72 h ([5]; oil or lipid, Linseed Oil, room temperature, read-out: Drug Solubility): 0.79 mg/mL (≈ 1.81 mM)
solubility at 72 h ([5]; oil or lipid, Mineral Oil, room temperature, read-out: Drug Solubility): 0.004 mg/mL (≈ 0.00919 mM)
solubility at 72 h ([5]; oil or lipid, Olive Oil, room temperature, read-out: Drug Solubility): 0.22 mg/mL (≈ 0.505 mM)
solubility at 72 h ([5]; oil or lipid, Paraffin Oil, room temperature, read-out: Drug Solubility): 0.009 mg/mL (≈ 0.0207 mM)
solubility at 72 h ([5]; oil or lipid, Peanut Oil, room temperature, read-out: Drug Solubility): 2.19 mg/mL (≈ 5.03 mM)
solubility at 72 h ([5]; oil or lipid, Pluro oleique CC 497, room temperature, read-out: Drug Solubility): 1.04 ± 0.02 mg/mL (≈ 2.39 mM)
solubility at 72 h ([5]; oil or lipid, Soybean Oil, room temperature, read-out: Drug Solubility): 0.31 mg/mL (≈ 0.712 mM)
solubility at 72 h ([5]; organic solvent or mixture, 1-methyl-2-pyrrolidinone, room temperature, read-out: Drug Solubility): 458 mg/mL (≈ 1050 mM)
solubility at 72 h ([5]; organic solvent or mixture, Cremophore EL, room temperature, read-out: Drug Solubility): 46 ± 0.69 mg/mL (≈ 106 mM)
solubility at 72 h ([5]; organic solvent or mixture, Labrasole, room temperature, read-out: Drug Solubility): 61 mg/mL (≈ 140 mM)
solubility at 72 h ([5]; organic solvent or mixture, PEG 400, room temperature, read-out: Drug Solubility): 71.6 mg/mL (≈ 164 mM)
solubility at 72 h ([5]; organic solvent or mixture, Tween 20, room temperature, read-out: Drug Solubility): 55.8 ± 0.87 mg/mL (≈ 128 mM)
solubility at 72 h ([5]; organic solvent or mixture, Tween 80, room temperature, read-out: Drug Solubility): 49.7 ± 0.41 mg/mL (≈ 114 mM)
solubility at 72 h ([5]; Water, room temperature, read-out: Drug Solubility): 0.00397 mg/mL (≈ 0.00912 mM)
binding to plasma proteins [6]: highly bound
